SMILES strings stand for the structures. pIC50: −log10 of the molar value. A value given as a limit tells only on which side of the number the result lay.

For this experiment, the target named is T1, PD-1/PD-L1 protein/protein interaction (recombinant human PD-L1 protein (19-238), recombinant human PD-1 protein (25-167)) (Homo sapiens, UniProt Q9NZQ7).
T1 construct: Recombinant human PD-L1 protein (19-238) with a His-tag at the C-terminus; purchased AcroBiosystems PD1-H5229 (PD-L1); PD1-H5257 (PD-1)
T1 sequence (Q9NZQ7 19-238): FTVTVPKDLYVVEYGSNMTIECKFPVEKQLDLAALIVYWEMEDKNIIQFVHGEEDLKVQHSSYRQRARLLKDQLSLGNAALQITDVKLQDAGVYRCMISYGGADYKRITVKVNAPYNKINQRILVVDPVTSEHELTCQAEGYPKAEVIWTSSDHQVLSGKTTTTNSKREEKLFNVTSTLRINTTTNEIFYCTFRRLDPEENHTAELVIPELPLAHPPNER
As to the kind of experiment: PD-1/PD-L1 Homogeneous Time-Resolved Fluorescence (HTRF) Binding Assay. As to conditions: 25° C., PBS buffer pH 7.4, 40 minutes preincubation with inhibitors. The protocol: Example A. PD-1/PD-L1 Homogeneous Time-Resolved Fluorescence (HTRF) Binding Assay
The assays were conducted in a standard black 384-well polystyrene plate with a final volume of 20 μL. Inhibitors were first serially diluted in DMSO and then added to the plate wells before the addition of other reaction components. The final concentration of DMSO in the assay was 1%. The assays were carried out at 25° C. in the PBS buffer (pH 7.4) with 0.05% Tween-20 and 0.1% BSA. Recombinant human PD-L1 protein (19-238) with a His-tag at the C-terminus was purchased from AcroBiosystems (PD1-H5229). Recombinant human PD-1 protein (25-167) with Fc tag at the C-terminus was also purchased from AcroBiosystems (PD1-H5257). PD-L1 and PD-1 proteins were diluted in the assay buffer and 10 μL was added to the plate well. Plates were centrifuged and proteins were preincubated with inhibitors for 40 minutes. The incubation was followed by the addition of 10 μL of HTRF detection buffer supplemented with Europium cryptate-labeled anti-human IgG (PerkinElmer-AD0212) specific for Fc and anti-His antibody conjugated to SureLight®-Allophycocyanin (APC, PerkinElmer-AD0059H). After centrifugation, the plate was incubated at 25° C. for 60 min. before reading on a PHERAstar FS plate reader (665 nm/620 nm ratio). Final concentrations in the assay were […], 10 nM PD-L1, 1 nM europium anti-human IgG and 20 nM anti-His-Allophycocyanin. IC50 determination was performed by fitting the curve of percent control activity versus the log of the inhibitor concentration using the GraphPad Prism 5.0 software.
In general terms: In TR-FRET formats the signal depends on donor and acceptor labels being close together.
For orientation: pIC50 means the negative decadic logarithm of the IC50, by convention in mol/L. With `N#Cc1c(NC(=O)c2cc3n(n2)CCNC3)cccc1-c1ccc2c(c1)OCCO2` [Example 10, N-[2-cyano-3-(2,3-dihydro-1,4-benzodioxin-6-yl)phenyl]-4,5,6,7-tetrahydropyrazolo[1,5-a]pyrazine-2-carboxamide], the pIC50 was 6.30 to 7.00.

Turning to `O=C(Nc1cccc(-c2ccc3c(c2)OCCO3)c1Cl)c1nc2c(s1)CNCC2` [Example 34, N-[2-chloro-3-(2,3-dihydro-1,4-benzodioxin-6-yl)phenyl]-4,5,6,7-tetrahydro[1,3]thiazolo[5,4-c]pyridine-2-carboxamide], the pIC50 is ≥ 7.00.

With `Cc1c(NC(=O)c2nc3c(s2)CNCC3)cccc1-c1cccc2[nH]ncc12` [Example 25, N-[3-(1H-indazol-4-yl)-2-methylphenyl]-4,5,6,7-tetrahydro[1,3]thiazolo[5,4-c]pyridine-2-carboxamide], the pIC50 is ≥ 7.00.

For `Cc1c(NC(=O)c2nc3c(s2)CNCC3)cc(F)cc1-c1ccc2c(c1)OCCO2` [Example 36, N-[3-(2,3-dihydro-1,4-benzodioxin-6-yl)-5-fluoro-2-methylphenyl]-4,5,6,7-tetrahydro[1,3]thiazolo[5,4-c]pyridine-2-carboxamide], the pIC50 is ≥ 7.00.

Take `Cc1c(NC(=O)c2nc3c(s2)CNCC3)cccc1-c1ccccc1` [Example 26, N-(2-methylbiphenyl-3-yl)-4,5,6,7-tetrahydro[1,3]thiazolo[5,4-c]pyridine-2-carboxamide]: the pIC50 is ≥ 7.00.

For the compound `Cn1c(C(=O)Nc2cccc(-c3cccc4c3cnn4C)c2C#N)nc2c1CCNC2` [Example 42, N-(2-cyano-3-(1-methyl-1H-indazol-4-yl)phenyl)-1-methyl-4,5,6,7-tetrahydro-1H-imidazo[4,5-c]pyridine-2-carboxamide], the negative-log IC50 (pIC50) was 6.30 to 7.00.

For `N#Cc1c(NC(=O)c2nc3c(s2)CNCC3)cccc1-c1ccccc1Cl` [Example 18, N-(2′-chloro-2-cyanobiphenyl-3-yl)-4,5,6,7-tetrahydro[1,3]thiazolo[5,4-c]pyridine-2-carboxamide], the pIC50 is ≥ 7.00.

Consider `Cc1c(NC(=O)c2nc3c(s2)CNCC3)cccc1-c1ccc2cn(C)nc2c1` [Example 29, N-[2-methyl-3-(2-methyl-2H-indazol-6-yl)phenyl]-4,5,6,7-tetrahydro[1,3]thiazolo[5,4-c]pyridine-2-carboxamide], for which the pIC50 is 6.30 to 7.00.

In the case of `COc1cccc(-c2cccc(NC(=O)c3nc4c(n3C)CCNC4)c2C#N)c1F` [Example 39, N-(2-cyano-2′-fluoro-3′-methoxybiphenyl-3-yl)-1-methyl-4,5,6,7-tetrahydro-1H-imidazo[4,5-c]pyridine-2-carboxamide], the pIC50 was ≥ 7.00.

Take `Cc1c(NC(=O)c2nc3c(s2)CNCC3)ccnc1-c1ccc2c(c1)OCCO2` [Example 37, N-[2-(2,3-dihydro-1,4-benzodioxin-6-yl)-3-methylpyridin-4-yl]-4,5,6,7-tetrahydro[1,3]thiazolo[5,4-c]pyridine-2-carboxamide]: the pIC50 was 5.00 to 6.30.

On to `Cc1c(NC(=O)c2nc3c(s2)CNCC3)cccc1-c1cccc2c1cnn2C` [Example 23, N-[2-methyl-3-(1-methyl-1H-indazol-4-yl)phenyl]-4,5,6,7-tetrahydro[1,3]thiazolo[5,4-c]pyridine-2-carboxamide], for which the negative-log IC50 (pIC50) is ≥ 7.00.

Take `N#Cc1c(NC(=O)c2nc3c(s2)CNCC3)cccc1C1CCCCC1` [Example 8, N-(2-cyano-3-cyclohexylphenyl)-4,5,6,7-tetrahydro[1,3]thiazolo[5,4-c]pyridine-2-carboxamide]: the negative logarithm of the IC50 (pIC50) was 6.30 to 7.00.

Turning to `COc1cccc(-c2cccc(NC(=O)c3nc4c(n3C)CCN(CCO)C4)c2C#N)c1F` [Example 40, N-(2-cyano-2′-fluoro-3′-methoxybiphenyl-3-yl)-5-(2-hydroxyethyl)-1-methyl-4,5,6,7-tetrahydro-1H-imidazo[4,5-c]pyridine-2-carboxamide], the negative logarithm of the IC50 (pIC50) is ≥ 7.00.

As to `COc1cc(F)cc(-c2cccc(NC(=O)c3nc4c(s3)CNCC4)c2C#N)c1` [Example 17, N-(2-cyano-3′-fluoro-5′-methoxybiphenyl-3-yl)-4,5,6,7-tetrahydro[1,3]thiazolo[5,4-c]pyridine-2-carboxamide], the negative logarithm of the IC50 (pIC50) is ≥ 7.00.

Consider `Cn1ncc2c(-c3cccc(NC(=O)c4nc5c(s4)CNCC5)c3Cl)cccc21` [Example 35, N-(2-chloro-3-(1-methyl-1H-indazol-4-yl)phenyl)-4,5,6,7-tetrahydrothiazolo[5,4-c]pyridine-2-carboxamide], for which the negative logarithm of the IC50 (pIC50) is ≥ 7.00.

Regarding `Cc1c(NC(=O)c2nc3c(s2)CNCC3)cccc1-c1ccc2c(c1)OCCO2` [Example 20, N-[3-(2,3-dihydro-1,4-benzodioxin-6-yl)-2-methylphenyl]-4,5,6,7-tetrahydro[1,3]thiazolo[5,4-c]pyridine-2-carboxamide], the negative-log IC50 (pIC50) is ≥ 7.00.

As to `Cc1c(NC(=O)c2nc3c(s2)CNCC3)cccc1-c1ccccc1C#N` [Example 30, N-(2′-cyano-2-methylbiphenyl-3-yl)-4,5,6,7-tetrahydro[1,3]thiazolo[5,4-c]pyridine-2-carboxamide], the pIC50 is 6.30 to 7.00.

For `Cc1c(NC(=O)c2nc3c(s2)CN(CCO)CC3)cccc1-c1ccccc1` [Example 27, 5-(2-hydroxyethyl)-N-(2-methylbiphenyl-3-yl)-4,5,6,7-tetrahydrothiazolo[5,4-c]pyridine-2-carboxamide], the pIC50 was ≥ 7.00.

With `Cn1c(C(=O)Nc2cccc(-c3ccc4c(c3)OCCO4)c2C#N)nc2c1CCN(CCO)C2` [Example 13, N-(2-cyano-3-(2,3-dihydrobenzo[b][1,4]dioxin-6-yl)phenyl)-5-(2-hydroxyethyl)-1-methyl-4,5,6,7-tetrahydro-1H-imidazo[4,5-c]pyridine-2-carboxamide], the negative logarithm of the IC50 (pIC50) is ≥ 7.00.

With `N#Cc1c(NC(=O)c2nc3c(s2)CNCC3)cccc1-c1ccccc1` [Example 2, N-(2-cyanobiphenyl-3-yl)-4,5,6,7-tetrahydro[1,3]thiazolo[5,4-c]pyridine-2-carboxamide], the negative logarithm of the IC50 (pIC50) was ≥ 7.00.

`N#Cc1c(NC(=O)c2nc3c(s2)CNCC3)cccc1-c1ccccc1F` [Example 4, N-(2-cyano-2′-fluorobiphenyl-3-yl)-4,5,6,7-tetrahydro[1,3]thiazolo[5,4-c]pyridine-2-carboxamide]: the negative-log IC50 (pIC50) was ≥ 7.00.

`N#Cc1c(NC(=O)c2nc3n(n2)CCNC3)cccc1-c1ccc2c(c1)OCCO2` [Example 14, N-[2-cyano-3-(2,3-dihydro-1,4-benzodioxin-6-yl)phenyl]-5,6,7,8-tetrahydro[1,2,4]triazolo[1,5-a]pyrazine-2-carboxamide]: the pIC50 is 5.00 to 6.30.

Regarding `Cc1c(NC(=O)c2nc3c(s2)CNCC3)cncc1-c1ccc2c(c1)OCCO2` [Example 38, N-[5-(2,3-dihydro-1,4-benzodioxin-6-yl)-4-methylpyridin-3-yl]-4,5,6,7-tetrahydro[1,3]thiazolo[5,4-c]pyridine-2-carboxamide], the pIC50 is 5.00 to 6.30.

`Cc1c(NC(=O)c2nc3c(s2)CNCC3)cccc1-c1cccc(CO)c1F` [Example 24, N-[2′-fluoro-3′-(hydroxymethyl)-2-methylbiphenyl-3-yl]-4,5,6,7-tetrahydro[1,3]thiazolo[5,4-c]pyridine-2-carboxamide]: the negative logarithm of the IC50 (pIC50) is 5.00 to 6.30.

On to `COc1cccc(-c2cccc(NC(=O)c3nc4c(n3C)CCNC4)c2C)c1F` [Example 22, N-(2′-fluoro-3′-methoxy-2-methylbiphenyl-3-yl)-1-methyl-4,5,6,7-tetrahydro-1H-imidazo[4,5-c]pyridine-2-carboxamide], for which the pIC50 was ≥ 7.00.

Regarding `Cn1c(C(=O)Nc2cccc(-c3ccc4c(c3)OCCO4)c2C#N)nc2c1CCNC2` [Example 12, N-[2-cyano-3-(2,3-dihydro-1,4-benzodioxin-6-yl)phenyl]-1-methyl-4,5,6,7-tetrahydro-1H-imidazo[4,5-c]pyridine-2-carboxamide], the pIC50 was ≥ 7.00.

As to `COc1cccc(-c2cccc(NC(=O)c3nc4c(s3)CNCC4)c2C)c1F` [Example 21, N-(2′-fluoro-3′-methoxy-2-methylbiphenyl-3-yl)-4,5,6,7-tetrahydro[1,3]thiazolo[5,4-c]pyridine-2-carboxamide], the pIC50 was ≥ 7.00.

In the case of `N#Cc1c(NC(=O)c2nc3c(s2)CNCC3)cccc1-c1ccc2c(c1)OCCO2` [Example 1, N-[2-cyano-3-(2,3-dihydro-1,4-benzodioxin-6-yl)phenyl]-4,5,6,7-tetrahydro[1,3]thiazolo[5,4-c]pyridine-2-carboxamide], the pIC50 is ≥ 7.00.

As for `Cc1c(NC(=O)c2nc3c(s2)CNCC3)cccc1-c1ccccc1CC#N` [Example 31, N-[2′-(cyanomethyl)-2-methylbiphenyl-3-yl]-4,5,6,7-tetrahydro[1,3]thiazolo[5,4-c]pyridine-2-carboxamide], the pIC50 is 5.00 to 6.30.

With `N#Cc1c(NC(=O)c2nc3c(s2)CNCC3)cccc1C1=CCCCC1` [Example 7, N-(2-cyano-3-cyclohex-1-en-1-ylphenyl)-4,5,6,7-tetrahydro[1,3]thiazolo[5,4-c]pyridine-2-carboxamide], the negative-log IC50 (pIC50) was ≥ 7.00.

These data come from patent US11873309B2, “Heterocyclic compounds as immunomodulators” (Incyte Corporation, priority 2016, dated 2024).
